SMILES strings stand for the structures.

The molecule `C[C@H]1CN(c2ccc(C(F)(F)F)c(CF)c2)C(=O)c2c(NC(=O)c3cccnc3N)cnn21` [[^19F]-1] had a melting point of 150.62 °C.
